{"source": "patent US9889135B2", "about": "“Companion diagnostic for CDK4 inhibitors” (Memorial Sloan-Kettering Cancer Center, priority 2013, dated 2018)", "key": {"[1]": {"tested_on": "MDM2 in DBTRG-05MG glioma cells", "experiment": "MDM2 expression by immunoblot", "type": "cell-based", "procedure": "(§1) Antibodies against CDK4 (3F121), MDM2 (N-20 and SMP14), total RB (IF8), Cyclin A (H432), p16 (C20), p53 (DO-1 and Bp53-12), tubulin (C20) and FLAG (M2) were obtained from Santa Cruz Biotechnology, phospho-Rb 780 (#9307) from Cell Signalling, and ARF (3642) from Abeam, HAUSP (A300-033A) from Bethyl Laboratories. Treated cells were lysed with buffer composed of 50 mM Tris-HCl, pH7.4, 250 mM NaCl, 5 mM EDTA, 0.5% NP40, 2 mM PMSF, and supplemented with protease inhibitors. Eighty micrograms of protein were resolved by SDS-PAGE and transferred to PVDF membranes. Membranes were incubated overnight with antibodies (1:1000). […] Cycles were repeated every four weeks and patients are still on trial. Pre-treatment biopsies were collected within two weeks of the first dose and post-treatment biopsies collected after at last three weeks of treatment. Extracts were prepared in 50 mM Tris-HCl, pH7.4, 150 mM NaCl, 1 mM EDTA, 1% NP40, 0.25% sodium deoxycholate and supplemented with mini-protease inhibitor cocktail (Roche). Tumor response was assessed by reference radiologist by CT scan every six weeks for 36 weeks, and every 12 weeks thereafter. The clinical trial was approved by the Institutional Review Board of Memorial Sloan-Kettering Cancer Center and all patients provided written informed consent (NCT01209598)."}, "[2]": {"tested_on": "MDM2 in DKMG glioma cells", "experiment": "MDM2 expression by immunoblot", "type": "cell-based", "procedure": "as §1"}, "[3]": {"tested_on": "MDM2 in MCF7 breast cancer cells", "experiment": "MDM2 expression by immunoblot", "type": "cell-based", "procedure": "as §1"}, "[4]": {"tested_on": "MDM2 in SNB19 glioma cells", "experiment": "MDM2 expression by immunoblot", "type": "cell-based", "procedure": "as §1"}, "[5]": {"tested_on": "MDM2 in T98G glioma cells", "experiment": "MDM2 expression by immunoblot", "type": "cell-based", "procedure": "as §1"}, "WD/DDLS cell lines": {"tested_on": "WD/DDLS cell lines", "experiment": "annexin V staining (apoptosis)", "type": "cell-based, human", "conditions": "PD0332991, 48 hours, any of the seven cell lines", "procedure": "FIG. 1A-C. […] Mean percentage of BrdU incorporation or annexin V+/7-AAD− cells was calculated from three or more independent experiments. Error bars represent standard deviation (*p<0.05).\nFIG. 13A-B. Nutlin-3a induces apoptosis in all the liposarcoma cell lines. The indicated cell lines were treated with nutlin-3a or vehicle control and extracts were prepared for immunoblotting (A) or annexin V staining (B) forty-eight hours after treatment. Mean percentage of annexin V+/7-AAD− cells was calculated from three or more independent experiments. Error bars represent standard deviation (*p<0.05).\nCells were stained with BrdU (20 μM for two hours) or annexin V as previously described (22, 48). […] was determined by staining with propidium iodine and FACS analyses (49)."}, "[6]": {"tested_on": "LS8817, LS141 and LS0082 cells", "experiment": "SA-β-gal and SAHF (HP1γ) senescence staining, responder lines", "type": "cell-based, human", "source_text": "Mean percentage standard deviation). […] (A) Senescence-associated β-galactosidase and (B) HP1γ staining for senescence associated heterochromatic foci (SAHF) formation was quantitated for three or more independent experiments for each cell line. […] Representative phase contrast micrographs of cells stained for SA-β-gal or immunofluorescence staining for HP1γ in two of the cell lines before (ctrl) and after (PD) drug treatment are shown in the insets of FIGS. 2A and 2B, respectively. (C) BrdU incorporation. […] Error bars represent the standard deviation of the mean calculated from three independent trials. […] Cell number was quantitated by DAPI staining and β-galactosidase staining quantitated as a proportion of total cells. Senescence associated heterochromatic foci were quantitated after cells were fixed with 4% paraformaldehyde, permeabilized with 0.1% Triton, blocked with 2% FBS, and stained with antibodies against HP1γ (1:5000 dilution, 2MOD-1G6 Millipore). Senescent cells were identified by immunofluorescence after treatment of slides with anti-mouse secondary antibodies and quantitation of focal SAHF as a percent of total cells (Leica Upright Confocal SP5 confocal microscope). […] Cell area was measured by with Metamorph software to calculate relative area per cell."}, "[7]": {"tested_on": "MDM2 in LS8817 and LS0082 cells", "experiment": "MDM2 levels by immunoblot, responder cells", "type": "cell-based, human", "conditions": "two days", "procedure": "(A) Immunoblot. […] Tubulin was a loading control. (B) Immunoblot.\nAntibodies against CDK4 (3F121), MDM2 (N-20 and SMP14), total RB (IF8), Cyclin A (H432), p16 (C20), p53 (DO-1 and Bp53-12), tubulin (C20) and FLAG (M2) were obtained from Santa Cruz Biotechnology, phospho-Rb 780 (#9307) from Cell Signalling, and ARF (3642) from Abeam, HAUSP (A300-033A) from Bethyl Laboratories. Treated cells were lysed with buffer composed of 50 mM Tris-HCl, pH7.4, 250 mM NaCl, 5 mM EDTA, 0.5% NP40, 2 mM PMSF, and supplemented with protease inhibitors. Eighty micrograms of protein were resolved by SDS-PAGE and transferred to PVDF membranes. Membranes were incubated overnight with antibodies (1:1000). […] Pre-treatment biopsies were collected within two weeks of the first dose and post-treatment biopsies collected after at last three weeks of treatment. Extracts were prepared in 50 mM Tris-HCl, pH7.4, 150 mM NaCl, 1 mM EDTA, 1% NP40, 0.25% sodium deoxycholate and supplemented with mini-protease inhibitor cocktail (Roche). Tumor response was assessed by reference radiologist by CT scan every six weeks for 36 weeks, and every 12 weeks thereafter."}, "[8]": {"conditions": "ratio of MDM2 detected by Image J scanning in treated versus untreated cultures"}}}
{"smiles": "CC(=O)c1c(C)c2cnc(Nc3ccc(N4CCNCC4)cn3)nc2n(C2CCCC2)c1=O", "note": "[PD0332991]", "values": [{"measurement": "MDM2 expression levels reduced compared to the non-treated cells", "setting": "[1]", "value": "greater than 34%"}, {"measurement": "ΔMDM2 with PD", "setting": "[1]; [8]", "value": 0.49}, {"measurement": "MDM2 expression levels reduced compared to the non-treated cells", "setting": "[2]", "value": "greater than 34%"}, {"measurement": "ΔMDM2 with PD", "setting": "[2]; [8]", "value": 0.66}, {"measurement": "MDM2 expression levels reduced compared to the non-treated cells", "setting": "[3]", "value": "greater than 34%"}, {"measurement": "ΔMDM2 with PD", "setting": "[3]; [8]", "value": 0.08}, {"measurement": "MDM2 expression levels reduced compared to the non-treated cells", "setting": "[4]", "value": "greater than 34%"}, {"measurement": "ΔMDM2 with PD", "setting": "[4]; [8]", "value": 0.08}, {"measurement": "MDM2 levels", "setting": "[5]; cells that did not undergo senescence", "value": "unaffected"}, {"measurement": "ΔMDM2 with PD", "setting": "[5]; [8]", "value": "Not detected"}, {"measurement": "annexin V staining, a marker of apoptosis", "setting": "WD/DDLS cell lines", "value": "did not induce a significant change"}, {"measurement": "number of SA-β-gal or SAHF positive cells", "setting": "[6]; seven days after exposure", "value": "significant increase"}, {"measurement": "concentration giving a significant increase in SA-β-gal or SAHF positive cells", "setting": "[6]; seven days, concentrations as low as", "value": "≤ 100", "unit": "nM"}, {"measurement": "MDM2 reduction", "setting": "[7]", "value": "approximately three-fold"}]}
